Reference: US11110078B2, “Composition and method for treatment of diseases associated with central nervous system inflammation” (AMRITA VISHWA VIDYAPEETHAM, priority 2019, dated 2021)

How the values were obtained:
[1] = In vivo toxicity: serum AST and ALT liver enzymes; set-up: species or system mice; details: 3, 10 and 25 days
Procedure: In vitro efficacy of GMFBI.1 compound in down regulating the expression of both proinflammatory mediators p38MAPK and NFκB under the control of GMF-β and its non-toxic nature at lower concentrations was first evaluated. The levels of aspartate amino transferase (AST) and alanine amino transferase (ALT) were measured spectrophotometrically from serum of GMFBI.1 compound administered animals to monitor its liver function as shown in FIG. 6A and FIG. 6B respectively. […] Grey shaded region denotes the normal range of AST and ALT enzymes in mice in FIG. 6A and FIG. 6B respectively.
The GMFBI.1 compound distribution in various compartments (organs, plasma & urine) of normal healthy mice at different time intervals (30 minutes, 1, 2, 3 and 6 hours) and its distribution profile (n=3 per group), is shown in FIG. 6C. […] Further, again 300 μg of GMFBI.1 was injected in EAE animals and the blood brain barrier is compromised as in MS patients. […] Both AST and ALT activity was measured at 3, 10 and 25 days.

p38MAPK = p38MAPK expression in LPS stimulated cultured astrocytes; format: cell-based; details: 500 ng/mL, n=3
[2] = Bio-distribution in compartments of normal healthy mice; format: in vivo, C57BL/6 mice; details: 300 μg intraperitoneal
Procedure: (§1) The GMFBI.1 compound distribution in various compartments (organs, plasma & urine) of normal healthy mice at different time intervals (30 minutes, 1, 2, 3 and 6 hours) and its distribution profile (n=3 per group), is shown in FIG. 6C. […] Further, again 300 μg of GMFBI.1 was injected in EAE animals and the blood brain barrier is compromised as in MS patients. […] Based on these observations, mice was injected twice daily with 300 μg/mice (12 mg/Kg) GMFBI.1 for 25 days. Both AST and ALT activity was measured at 3, 10 and 25 days.

[3] = test system: proinflammatory and anti-inflammatory cytokines; test: Cytokine levels in treated EAE animals (relative fold change); format: in vivo, C57BL/6 mice
Source text: From FIG. 7G, it is observed that down regulation of these inflammatory cytokines has potential significance in the therapy and increased levels of anti-inflammatory cytokines particularly IL-10 and TGF beta levels. In MS patients, the levels of TGF beta and IL-10 are low compared to healthy individuals and significant down regulation of IL-17 are promising as IL-17 drives the inflammation in EAE and MS disease.

NFκB = NFκB expression in LPS stimulated cultured astrocytes; format: cell-based; details: 500 ng/mL, n=3
EAE induced animals [4] = test: Leukocyte infiltrates in brain and spinal cord of EAE animals by H and E staining; format: in vivo, C57BL/6 mice; details: 25 days after treatment, versus saline treated EAE controls, P<0.05, n=3
Source text: (§2) Animals were sacrificed 25 days after GMFBI.1 compound treatment and the levels of leukocyte infiltrates in brain as shown in FIG. 7C and spinal cord as shown in FIG. 7D were compared against EAE control by Haematoxylin and Eosin(H and E) staining.

GMF-β = GMF-β (Homo sapiens, UniProt P60983); test: In vitro phosphorylation of purified GMF-β by PKA; format: biochemical; details: 250 ng/mL GMFBI.1, 1 μg/mL GMF-β, versus lane without compound
Chain of GMF-β (P60983 2-142 limits assumed): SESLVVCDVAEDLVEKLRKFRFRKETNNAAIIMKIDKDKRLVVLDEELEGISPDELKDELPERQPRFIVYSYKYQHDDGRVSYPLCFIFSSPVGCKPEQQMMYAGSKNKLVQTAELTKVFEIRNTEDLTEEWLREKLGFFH
Procedure: With the in silico proof of concept showing high binding efficacy to GMF-β phosphorylation sites, in vitro phosphorylation studies using PKA (PKA phosphorylation results in activation of the downstream proinflammatory cascade) and purified GMF-β in presence and absence of GMFBI.1 compound is performed. […] In FIG. 4B, “+” sign indicates experiment with 1 μg/mL GMF-β and PKA, “−” indicates control reaction in the absence of PKA and “GMFBI.1” indicates phosphorylation level on GMF-β in the presence of small molecule GMFBI.1 (250 ng/mL).

EAE induced animals [5] = test: Reversal of EAE: clinical scores in paralyzed EAE animals; format: in vivo, C57BL/6 mice
Procedure: (§3) Treatment was given to a group of animals with average clinical score of 3 for a period of 2 weeks. EAE induced animals were injected at clinical score 3.5 with GMFBI.1 compound 300 μg/mice (12 mg/Kg) twice daily at day 13.EAE clinical scores of C57BL/6 mice treated with GMFBI.1 compound ([…] i.p twice daily) and controls with saline (n=5 per group) is shown in FIG. 7A.
as §2

astrocytes = test: MTT cell viability assay on cultured astrocytes; format: cell-based; details: 48 hours incubation, 0-3 mg/mL tested
Procedure: In order to test whether virtually screened GMFBI.1 drug like compound is toxic to the cells, different concentrations (0-3 mg/mL) of GMFBI.1 on astrocytes were tested. Test includes performing MTT cell viability assay following 48 hours of incubation with GMFBI.1. […] NC represents […] with 10% Triton X-100.

[6] = Distribution into brain of EAE mice; format: in vivo
Procedure: as §1, §3

[7] = 300 μg/mice twice daily for 25 days
[8] = versus untreated EAE controls, n=3

With `OCc1cccc2[nH]ncc12` [GMFBI.1, (1-H Indazol-4-yl)-methanol] the “ALT activity level versus control” value [1, 7] was “remained similar to that of control”, the “AST activity level versus control” value [1, 7] was “remained similar to that of control” and the “serum ALT level versus saline controls” value ([1]; 14 mg/kg twice daily) was “No significant difference”. For the same compound, the “serum AST level versus saline controls” value ([1]; 14 mg/kg twice daily) was “No significant difference”, the p38MAPK protein expression (p38MAPK) was “statistically significant suppression” and the “amount of compound in liver within three hours” value [2] was “significantly reduced compared to 2 hrs”. The “compound in brain of healthy mice at any time period” value [2] was “no GMFBI.1 compound was detected in the brains”, the “compound in kidney within three hours” value [2] was “transiently seen in kidney” and the “compound in plasma at 30 mins to 1 hr” value [2] was “most of the GMFBI.1 compound remained in the plasma”. The “compound in plasma by two hours” value [2] was “no GMFBI.1 compound could be detected in plasma”, the “compound in urine within three hours” value [2] was “found majorly in urine” and the “free compound in organs by 6 hrs” value [2] was “no free GMFBI.1 compound in any of the organs were detected”. For the same compound, the IL1-β level ([3]; following treatment) was “down regulated significantly”, the GMCSF level ([3]; versus EAE controls, n=3) was “significant decrease” and the IFN-γ level ([3]; versus EAE controls, n=3) was “significant decrease”. For the same compound, the IL-6 level ([3]; versus EAE controls, n=3) was “significant decrease”, the IL-17A level ([3]; versus EAE controls, n=3) was “significant decrease” and the TNF-α level ([3]; versus EAE controls, n=3) was “significant decrease”. The “IL-10 level (anti-inflammatory)” value [3, 8] was “elevated significantly”, the “TGF-β level (anti-inflammatory)” value [3, 8] was “elevated significantly” and the NFκB protein expression (NFκB) was “statistically significant suppression”. For the same compound, the “number of cellular infiltrates in brain” value (EAE induced animals [4]) was “significant reduction in the number of cellular infiltrates”, the “number of cellular infiltrates in spinal cord” value (EAE induced animals [4]) was “significant reduction in the number of cellular infiltrates” and the “phosphorylation of GMF-β by PKA” value (GMF-β) was “several fold decrease in phosphorylation”. For the same compound, the “EAE clinical score by day 18” value (EAE induced animals [5]; 300 μg/mice (12 mg/Kg; also printed 14 mg/kg i.p) twice daily from day 13, n=5) was “the clinical score started to improve”, the “clinical score versus control” value (EAE induced animals [5]; from 7th day after treatment, P<0.001) was “Significant reduction in the clinical score” and the “body weight over time versus control animals” value (EAE induced animals [5]; treated EAE animals) was “significant weight gain”. For the same compound, the “EAE clinical score by day 40” value (EAE induced animals [5]; twice daily i.p. from day 13) was “very low clinical score”, the “locomotor motion by day 30” value (EAE induced animals [5]; twice daily i.p. from day 13) was “able to show improvements in locomotor motion and was able to walk” and the “concentration up to which astrocytes remained viable” value (astrocytes) was no more than 1000 µg/mL. For the same compound, the “amount of compound in brain by 3 hrs” value ([6]; 300 μg injected, EAE animals) was no more than 15 µg, the “compound in brain by 6 hrs” value ([6]; 300 μg injected, EAE animals) was “no GMFBI.1 may be detected in the brain” and the “time by which compound is detected in brain” value ([6]; 300 μg injected, EAE animals) was no more than 2 h. The “blood brain barrier crossing” value ([6]; EAE mice) was “able to cross the blood brain barrier” and the “retention in the system” value ([6]; EAE mice) was “at least three hours”.
